The results in this text go back to patent US20260256796A1, “METHOD FOR TREATING FELINE CORONAVIRUS OR CALICIVIRUS INFECTION” (VIGONVITA LIFE SCIENCES CO., LTD., priority 2022, published 2026).

pEC50: −log10 of the molar value.

The subject of data set [1] is feline infectious peritonitis virus (FIPV). Put plainly: Inhibitory activity against feline coronavirus (FIPV) in CRFK cells, CellTiter-Glo readout. The data set is classed as cell-based. Conditions: for pEC50: Alphacoronavirus 1, FIPV 0.1 MOI/well, 72 h, CellTiter-Glo; for inhibition of replication of FIPV in vitro: summary of Table 1. How it is done: CRFK cells in a good growth state were seeded into a 96-well assay plate. When the cells grew to 80%-90% confluence, feline coronavirus (FIPV) (0.1 MOI/well) and varying concentrations of the test compounds were added to the assay plate. Meanwhile, a cell control (cells, no compound treatment or viral infection) and a virus control (cells infected with virus, no compound treatment) were set. The final concentration of DMSO in the culture solution was 1%. After incubation at 37° C. for 72 h, the cells were treated with a CellTiter-Glo luminescent cell viability assay reagent (Promega, Madison, WI, USA). The half-maximal effective concentration (EC50) values of the compounds for virus inhibition were calculated using the GraphPad prism 7 software.
Background: In ATP-based viability assays light output follows the ATP content of the culture.

The nature of data set [2]: Pharmacokinetic evaluation in rats. The data set is classed as in vivo. As to conditions: male, SD; for AUC(0-inf) / AUC(0-t) / Cmax: nucleoside (compound 4) in rat plasma. On the procedure: Male SD rats were fasted before the experiment (except for the intravenous group, which was not fasted), with free access to water, and were fed uniformly 2 h after administration. Compound 4 was administered by intravenous injection at a dose of 2.0 mg/kg (n=3) and administered intragastrically at a dose of 10.0 mg/kg (n=3); compound 53 was administered by intravenous injection at a dose of 5.0 mg/kg (n=3) and administered intragastrically at a dose of 20.0 mg/kg (n=3); the administration vehicle was 5% DMSO+5% ethanol+40% PEG300+50% saline. After the administration, 0.2-mL blood samples were collected via the jugular vein at different time points. Each blood sample was then placed into a heparin sodium anticoagulation tube, gently mixed uniformly, and centrifuged at 2000 g for 10 min. Plasma was isolated and frozen in a refrigerator at −70° C. for later analysis. The concentration of nucleoside (compound 4) in the plasma was determined by the LC-MS-MS method, and pharmacokinetic parameters were calculated.

As a reminder, the pEC50 is the negative decadic logarithm of the EC50, by convention in mol/L. A low value points to a high EC50. In data set [1], `CC(C)C(=O)OC[C@H]1O[C@@](C#N)(c2ccc3c(N)ncnn23)[C@H](OC(=O)C(C)C)[C@@H]1OC(=O)C(C)C` [Compound 27] had a pEC50 of 5.80.
What is called bioavailability is the share of a dose that reaches the circulation, judged against a reference dose that is usually intravenous. The term AUC(0-inf) denotes total exposure, with the tail of the curve extrapolated. The low end stands for low exposure, the high end for high exposure. The AUC(0-t) is exposure summed from dosing to a finite time, without extrapolation to infinity. A higher AUC(0-t) goes with more exposure. By Cmax is commonly meant the peak of the concentration-time curve. For the compound `[2H]c1cc([C@]2(C#N)O[C@H](CO)[C@@H](O)[C@H]2O)n2ncnc(N)c12` [Compound 4], the bioavailability in data set [2] (plasma, rat, nucleoside (compound 4) measured, po 10.0 mg/kg vs iv 2.0 mg/kg, read-out: F (oral bioavailability)) came out at 21.7%. In data set [2] (iv 2.0 mg/kg), this compound displayed an AUC(0-inf) of 1.79 µg·h/mL, an AUC(0-t) of 1.72 µg·h/mL and a Cmax of 1.63 µg/mL. In data set [2] (po 10.0 mg/kg), the AUC(0-inf) was 1.91 µg·h/mL, the AUC(0-t) is 1.87 µg·h/mL and the Cmax is 0.246 µg/mL. Besides, the pEC50 in data set [1] is 5.63.
`[2H]c1cc([C@]2(C#N)O[C@H](COC(=O)C(C)C)[C@H]3OC(=O)O[C@H]32)n2ncnc(N)c12` [Compound 53]: in data set [1], the pEC50 is 6.18 and the “inhibition of replication of FIPV in vitro” value (shortened to “inhibition”) is listed as “could inhibit the replication”.
Turning to `N#C[C@@]1(c2ccc3c(N)ncnn23)O[C@H](CO)[C@@H](O)[C@H]1O` [GS-441524, reference compound], in data set [1], the pEC50 was 5.64.
Same read-out and setting: under `[2H]c1cc([C@]2(C#N)O[C@H](COC(=O)CC)[C@@H](O)[C@H]2O)n2ncnc(N)c12` [Compound 29] stands 5.96; under `N#C[C@@]1(c2ccc3c(N)ncnn23)O[C@H](CO)[C@H]2OC(=O)O[C@H]21` [Compound 25], 5.56.
The compound `[2H]c1cc([C@]2(C#N)O[C@H](COC(=O)C(C)C)[C@@H](OC(=O)C(C)C)[C@H]2OC(=O)C(C)C)n2ncnc(N)c12` [Compound 42] showed a negative-log EC50 (pEC50) in data set [1] of 5.79.
On to `[2H]c1cc([C@]2(C#N)O[C@H](COC(=O)C(CC)CC)[C@@H](O)[C@H]2O)n2ncnc(N)c12` [Compound 32], for which, in data set [1], the pEC50 is 4.36.
Same read-out and setting: next, `[2H]c1cc([C@]2(C#N)O[C@H](COC(C)=O)[C@@H](O)[C@H]2O)n2ncnc(N)c12` [Compound 52]: 5.89.
Regarding `CC(C)C(=O)OC[C@H]1O[C@@](C#N)(c2ccc3c(N)ncnn23)[C@H](O)[C@@H]1O` [Compound 6], in data set [1], the pEC50 was 6.19 and the “inhibition” value is “could inhibit the replication”.
`[2H]c1cc([C@]2(C#N)O[C@H](COC(C)=O)[C@@H](OC(C)=O)[C@H]2OC(C)=O)n2ncnc(N)c12` [Compound 40] showed a pEC50 in data set [1] of 5.98.
Turning to `[2H]c1cc([C@]2(C#N)O[C@H](COC(=O)C(C)C)[C@@H](O)[C@H]2O)n2ncnc(N)c12` [Compound 11], in data set [1], the pEC50 was 6.16 and the “inhibition” value is listed as “could inhibit the replication”.
Consider `CC(C)C(=O)O[C@H]1[C@@H](O)[C@](C#N)(c2ccc3c(N)ncnn23)O[C@@H]1CO` [Compound 20], for which, in data set [1], the negative-log EC50 (pEC50) was 6.16 and the “inhibition” value is recorded as “could inhibit the replication”.
